Patent publication US8952024B2, “Herbicidal pyrimidone derivatives” (E I du Pont de Nemours and Company, priority 2009, dated 2015)

Legend:
Format in all cases: in vivo
[1] = tested on: cocklebur (Xanthium strumarium); test: Test B pre-/postemergence plant response
Procedure, shortened: (§1)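 Response scores were assigned visually after 13 to 15 days in a greenhouse, comparing treated pots with controls on a 0–100 scale where 100 denotes complete control. Preemergence treatments went onto freshly seeded loam/sand soil; postemergence treatments onto plants 2 to 18 cm tall.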

[2] = tested on: morningglory (Ipomoea coccinea); test: Test B pre-/postemergence plant response
Procedure, shortened: as §1

[3] = tested on: soybean (Glycine max); test: Test B pre-/postemergence plant response
Procedure, shortened: as §1

[4] = tested on: wheat (Triticum aestivum); test: Test B pre-/postemergence plant response
Procedure, shortened: as §1

[5] = tested on: pigweed (Amaranthus retroflexus); test: Test A pre-/postemergence plant response
Procedure, shortened: (§2)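 Pre: directed soil spray on seeded loam/sand blend. Post: same formulation (non-phytotoxic solvent + surfactant) on 2–10 cm plants, 1–2 leaf stage. Greenhouse ~10 d; visual injury score 0–100 vs untreated.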

[6] = tested on: velvetleaf (Abutilon theophrasti); test: Test A pre-/postemergence plant response
Procedure, shortened: as §2

[7] = tested on: morningglory (Ipomoea spp.); test: Test A pre-/postemergence plant response
Procedure, shortened: as §2

[8] = tested on: giant foxtail (Setaria faberii); test: Test A pre-/postemergence plant response
Procedure, shortened: as §2

[9] = tested on: barnyardgrass (Echinochloa crus-galli); test: Test A pre-/postemergence plant response; details: for Barnyardgrass plant response rating: visual injury, 0 to 100 scale (0 no effect, 100 complete control), approx. ten days
Procedure, shortened: as §2

[10] = tested on: wheat (Triticum aestivum); test: Test A pre-/postemergence plant response
Procedure, shortened: as §2

[11] = tested on: large crabgrass (Digitaria sanguinalis); test: Test A pre-/postemergence plant response; details: for Crabgrass, Large plant response rating: visual injury, 0 to 100 scale (0 no effect, 100 complete control), approx. ten days
Procedure, shortened: as §2

[12] = tested on: corn (Zea mays); test: Test A pre-/postemergence plant response; details: for Corn plant response rating: visual injury, 0 to 100 scale (0 no effect, 100 complete control), approx. ten days
Procedure, shortened: as §2

[13] = Postemergence, 31 g ai/ha, 0 to 100 scale (0 no effect, 100 complete control)
[14] = Postemergence, 125 g ai/ha, scale 0 to 100 (0 no effect, 100 complete control)
[15] = Postemergence, 250 g ai/ha, scale 0 to 100 (0 no effect, 100 complete control), 13 to 15 days
[16] = Postemergence, 62 g ai/ha, scale 0 to 100 (0 no effect, 100 complete control)
[17] = Postemergence, 125 g ai/ha, 0 to 100 scale where 0 is no effect and 100 is complete control
[18] = Postemergence, 500 g ai/ha, visual injury, 0 to 100 scale (0 no effect, 100 complete control), approx. ten days
[19] = Preemergence, 125 g ai/ha, 0 to 100 scale, 0 = no effect, 100 = complete control
[20] = Preemergence, 500 g ai/ha, 0 to 100 scale, 0 = no effect, 100 = complete control
[21] = Preemergence, 62 g ai/ha, scale 0 to 100, 0 no effect, 100 complete control
[22] = Preemergence, 125 g ai/ha, scale 0 to 100, 0 no effect, 100 complete control
[23] = Preemergence, 250 g ai/ha, 0 to 100 scale
[24] = Postemergence, 125 g ai/ha, scale 0 (no effect) to 100 (complete control), 13 to 15 days
[25] = Preemergence, 31 g ai/ha, scale 0 to 100 (0 no effect, 100 complete control)
[26] = Postemergence, 125 g ai/ha, visual injury, 0 to 100 scale (0 no effect, 100 complete control), approx. ten days
[27] = Preemergence, 125 g ai/ha, 0 to 100 scale where 0 is no effect and 100 is complete control, approximately ten days

CCCn1c(-c2ccccc2)ncc(C(=O)C2=C(O)C3CCC(C3)C2=O)c1=O (centres unmarked) [Compound 226]
95: Plant response rating, Soybean [3, 13]
15: Plant response rating, Wheat [4, 16]
60: Plant response rating, Morningglory [7, 19] | Corn plant response rating ([12]; Postemergence, 500 g ai/ha)
70: Plant response rating, Foxtail, Giant [8, 19]
30: Plant response rating, Wheat [4, 15] | Plant response rating, Barnyardgrass [9, 19]
100: Plant response rating, Cocklebur [1, 14] | Plant response rating, Cocklebur [1, 15] | Plant response rating, Morningglory [2, 14] | Plant response rating, Morningglory [2, 15] | Plant response rating, Soybean [3, 15] | Plant response rating, Pigweed [5, 17] | Pigweed plant response rating [5, 18] | Plant response rating, Pigweed [5, 19] | Plant response rating, Pigweed [5, 20] | Plant response rating, Velvetleaf [6, 17] | Velvetleaf plant response rating [6, 18] | Plant response rating, Velvetleaf [6, 20] | Plant response rating, Morningglory [7, 17] | Morningglory plant response rating [7, 18] | Plant response rating, Barnyardgrass [9, 20] | Crabgrass, Large plant response rating ([11]; Postemergence, 500 g ai/ha) | Plant response rating, Crabgrass, Large [11, 20]
90: Plant response rating, Foxtail, Giant [8, 17] | Foxtail, Giant plant response rating [8, 18] | Plant response rating, Foxtail, Giant [8, 20] | Plant response rating, Barnyardgrass [9, 17] | Barnyardgrass plant response rating ([9]; Postemergence, 500 g ai/ha) | Plant response rating, Crabgrass, Large [11, 17] | Plant response rating, Crabgrass, Large [11, 19]
0: Plant response rating, Wheat [10, 17] | Plant response rating, Wheat [10, 19] | Plant response rating, Corn [12, 19] | Plant response rating, Corn [12, 20]
98: Plant response rating, Cocklebur [1, 13] | Plant response rating, Cocklebur [1, 16] | Plant response rating, Morningglory [2, 13] | Plant response rating, Morningglory [2, 16] | Plant response rating, Soybean [3, 16]
80: Plant response rating, Velvetleaf [6, 19] | Plant response rating, Morningglory [7, 20]
50: Wheat plant response rating [10, 18]
10: Plant response rating, Wheat [4, 13] | Plant response rating, Wheat [10, 20] | Plant response rating, Corn [12, 17]

CCn1c(-c2cccc(F)c2)ncc(C(=O)C2=C(O)C3CCC(C3)C2=O)c1=O (centres unmarked) [Compound 236]
20: Plant response rating, Corn [12, 17]
98: Plant response rating, Soybean [3, 16]
40: Plant response rating, Foxtail, Giant [8, 19] | Wheat plant response rating [10, 18]
50: Plant response rating, Barnyardgrass [9, 19] | Corn plant response rating ([12]; Postemergence, 500 g ai/ha)
70: Plant response rating, Morningglory [7, 19] | Plant response rating, Foxtail, Giant [8, 17] | Plant response rating, Foxtail, Giant [8, 20]
100: Plant response rating, Cocklebur [1, 14] | Plant response rating, Cocklebur [1, 15] | Plant response rating, Cocklebur [1, 16] | Plant response rating, Soybean [3, 15] | Pigweed plant response rating [5, 18] | Plant response rating, Velvetleaf [6, 17] | Velvetleaf plant response rating [6, 18] | Plant response rating, Velvetleaf [6, 20] | Plant response rating, Morningglory [7, 17] | Morningglory plant response rating [7, 18] | Plant response rating, Crabgrass, Large [11, 20]
0: Plant response rating, Wheat [4, 13] | Plant response rating, Wheat [10, 17] | Plant response rating, Wheat [10, 19] | Plant response rating, Corn [12, 19]
30: Plant response rating, Wheat [10, 20]
95: Plant response rating, Morningglory [2, 14] | Plant response rating, Morningglory [2, 16]
60: Plant response rating, Morningglory [2, 13] | Plant response rating, Wheat [4, 15]
90: Plant response rating, Soybean [3, 13] | Plant response rating, Pigweed [5, 20] | Foxtail, Giant plant response rating [8, 18] | Plant response rating, Barnyardgrass [9, 17] | Barnyardgrass plant response rating ([9]; Postemergence, 500 g ai/ha) | Plant response rating, Barnyardgrass [9, 20] | Crabgrass, Large plant response rating ([11]; Postemergence, 500 g ai/ha)
10: Plant response rating, Wheat [4, 16] | Plant response rating, Corn [12, 20]
80: Plant response rating, Pigweed [5, 17] | Plant response rating, Pigweed [5, 19] | Plant response rating, Velvetleaf [6, 19] | Plant response rating, Morningglory [7, 20] | Plant response rating, Crabgrass, Large [11, 17] | Plant response rating, Crabgrass, Large [11, 19]

COCCCn1c(-c2cc(F)cc(F)c2)ncc(C(=O)C2=C(O)C3CCC(C3)C2=O)c1=O (centres unmarked) [Compound 244]
5: Plant response rating, Wheat [4, 22]
85: Plant response rating, Morningglory [2, 25] | Plant response rating, Soybean [3, 13] | Plant response rating, Wheat [4, 24]
70: Plant response rating, Soybean [3, 25] | Plant response rating, Foxtail, Giant [8, 27] | Wheat plant response rating [10, 18]
30: Plant response rating, Morningglory [7, 27] | Plant response rating, Barnyardgrass [9, 27]
100: Plant response rating, Cocklebur [1, 22] | Cocklebur plant response rating [1, 23] | Plant response rating, Morningglory [2, 24] | Plant response rating, Morningglory [2, 15] | Morningglory plant response rating [2, 23] | Plant response rating, Soybean [3, 24] | Plant response rating, Soybean [3, 15] | Plant response rating, Soybean [3, 16] | Plant response rating, Pigweed [5, 26] | Pigweed plant response rating [5, 18] | Plant response rating, Pigweed [5, 27] | Plant response rating, Pigweed [5, 20] | Plant response rating, Velvetleaf [6, 26] | Velvetleaf plant response rating [6, 18] | Plant response rating, Velvetleaf [6, 20] | Plant response rating, Morningglory [7, 26] | Morningglory plant response rating [7, 18] | Plant response rating, Foxtail, Giant [8, 20] | Barnyardgrass plant response rating ([9]; Postemergence, 500 g ai/ha) | Plant response rating, Barnyardgrass [9, 20] | Plant response rating, Crabgrass, Large [11, 20]
95: Plant response rating, Morningglory [2, 16] | Soybean plant response rating [3, 23] | Plant response rating, Wheat [4, 15]
60: Plant response rating, Wheat [4, 13]
40: Plant response rating, Wheat [10, 26] | Plant response rating, Wheat [10, 20] | Plant response rating, Corn [12, 17] | Plant response rating, Corn [12, 20]
20: Plant response rating, Corn [12, 27]
45: Wheat plant response rating [4, 23]
90: Plant response rating, Cocklebur [1, 21] | Plant response rating, Morningglory [2, 13] | Plant response rating, Morningglory [2, 21] | Plant response rating, Soybean [3, 22] | Plant response rating, Foxtail, Giant [8, 26] | Foxtail, Giant plant response rating [8, 18] | Plant response rating, Barnyardgrass [9, 17] | Plant response rating, Crabgrass, Large [11, 17] | Crabgrass, Large plant response rating ([11]; Postemergence, 500 g ai/ha) | Plant response rating, Crabgrass, Large [11, 27]
80: Plant response rating, Soybean [3, 21] | Plant response rating, Wheat [4, 16] | Plant response rating, Morningglory [7, 20] | Corn plant response rating ([12]; Postemergence, 500 g ai/ha)
50: Plant response rating, Velvetleaf [6, 27]
98: Plant response rating, Morningglory [2, 22]
0: Plant response rating, Wheat [4, 25] | Plant response rating, Wheat [4, 21] | Plant response rating, Wheat [10, 27]
